Test results from publication PMC11219860, “A chemogenetic approach for dopamine imaging with tunable sensitivity” (Nature Communications, 2024).

Key:
[1] = molecular target: T1, msADRA1a (Mus musculus, UniProt P97718); assay: NanoBit complementation assay of mini-Gq recruitment; format: cell-based
T1 construct: expressed in transfected cells; host or cells: HEK293T
Protocol: To measure the effect of DETQ on mini-G protein recruitment by different GPCRs we used a Nanoluciferase (NanoBit)-based complementation assay[26],[27]. For this HEK293T cells were seeded in six-well plates (Techno Plastic Products) at a density of 300,000 cells per well and co-transfected with plasmids encoding either hmDRD1, msDRD1, msDRD2, msDRD5, msADRA1a, msβ2AR or ms5HT6 carrying a C-terminally fused SmBiT, in combination with the corresponding mini-G protein probe[78] (mini-Gs: for DRD1, DRD5, β2AR, 5HT6R; mini-Gq: for ADRA1a; or mini-Gi: for DRD2), which were N-terminally fused to LgBiT, in a 1:1 DNA ratio using Effectene transfection reagent (Qiagen). […] The plate was incubated at 37 °C for 30 min, before the luminescence signal was measured at 37 °C using a Tecan Spark plate reader before and after the manual addition of 25 µl of either ligand solution (final concentrations ranging from 1 nM to 100 µM), pure Fluorobrite-DMEM or 25 µl of a DETQ solution (1 µM final concentration).
For in vitro luminescence assays, ligand traces were divided by buffer traces, the area under the curve for each trace was calculated using GraphPad Prism, values were normalized and fitted as dose response curve. […] The statistical significance was determined using Welch’s ANOVA followed by Dunnett’s multiple comparison test (comparison of ligand or vehicle to ligand). […]

[2] = molecular target: AlloLite-ctr (Homo sapiens, UniProt P21728, L143A/R130Q); format: cell-based
Protocol: Cells were transfected at 50–60% confluency in glass-bottomed dishes (either individually or in 24-well plates) using the Effectene transfection kit (Qiagen) according to manufacturer instructions, and imaged 24–48 h after transfection. The Flp-In™ T-REx™ 293 cells (Thermo Fisher) with a stably integrated dLight1.3b cassette[48] were cultured as follows: the cells were cultured using HEK293T cell medium with the addition of Blasticidin (15 µg/ml) and Hygromycin B (200 µg/ml). To induce the expression of dLight1.3b, doxycycline (500 ng/ml) was added to the culture medium for 24–48 hours. Before imaging, cells were rinsed with 1 mL of Hank’s Balanced Salt Solution (HBSS, Life Technologies) supplemented with Ca^2+ (2 mM) and Mg^2+ (1 mM), and imaged at room temperature with a final HBSS volume of either 100 µL for each individual 1.5 cm glass bottom dish, or 500 µL for 24-well plates. […] For quantification, except otherwise noted, regions of interest (ROI) were selected manually using the threshold function of Fiji to isolate the cell membrane. Sensor response (∆F/F) was calculated as the following: (F(t)-F_base)/F_base with F(t) being the ROI fluorescence value at each time point (t), and F_base being the mean fluorescence of the 10-time points immediately prior to ligand addition.

T1 sequence (P97718 whole entry): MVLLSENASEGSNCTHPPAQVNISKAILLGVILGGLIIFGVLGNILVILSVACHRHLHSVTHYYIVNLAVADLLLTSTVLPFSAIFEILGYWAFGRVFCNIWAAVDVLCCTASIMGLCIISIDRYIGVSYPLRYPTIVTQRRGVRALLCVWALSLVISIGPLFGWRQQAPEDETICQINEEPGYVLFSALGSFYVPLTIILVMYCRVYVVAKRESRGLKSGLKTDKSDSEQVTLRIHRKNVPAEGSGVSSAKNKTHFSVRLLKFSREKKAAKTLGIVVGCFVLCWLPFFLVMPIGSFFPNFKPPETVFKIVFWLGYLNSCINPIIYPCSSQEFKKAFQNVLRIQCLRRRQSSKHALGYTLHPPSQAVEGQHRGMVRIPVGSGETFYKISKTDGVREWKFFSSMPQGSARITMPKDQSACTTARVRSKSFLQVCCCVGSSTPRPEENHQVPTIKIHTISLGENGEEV

C[C@H]1c2cccc(C(C)(C)O)c2C[C@H](CO)N1C(=O)Cc1c(Cl)cccc1Cl [DETQ, 2-(2,6-dichlorophenyl)-1-((1S,3R)-3-(hydroxymethyl)-5-(2-hydroxypropan-2-yl)-1-methyl-3,4-dihydroisoquinolin-2(1H)-yl)ethan-1-one]
agonist mode: direct agonist effect ([1]; DETQ 1 µM alone): no direct agonist effect | allosteric modulator mode: effect on agonist dose-response ([1]; DETQ 1 µM, NE): No allosteric effect | α factor [2]: 1.6 | maximal fluorescent response to a saturating concentration of DA ([2]; DA 100 µM, wide range of DETQ concentrations): not affected
